Among the data in patent US6509328B1, “Glutamate receptor antagonists” (Hoffmann-La Roche Inc., priority 1999, dated 2003) are melting point values, retold here.

A word on the melting point: it is the temperature of the solid-liquid transition.

Turning to `CS(=O)(=O)N1CC=C(c2ccc3c(c2)NC(=O)CC(c2cccc(C#N)c2)=N3)CC1` [Example 46, 3-[7-(1-Methanesulfonyl-1,2,3,6-tetrahydro-pyridin-4-yl)-4-oxo-4,5-dihydro-3H-benzo [b][1,4]diazepin-2-yl]-benzonitrile], the melting point was 211 to 213 °C (dec.).

As to `CC(=O)N1CC=C(c2ccc3c(c2)NC(=O)CC(c2cccc(C#N)c2)=N3)CC1` [Example 47, 3-[7-(1-Acetyl-1,2,3,6-tetrahydro-pyridin-4-yl)-4-oxo-4,5-dihydro-3H-benzo [b][1,4]diazepin-2-yl]-benzonitrile], the melting point is 220 to 222 °C (dec.).

For `N#Cc1cccc(C2=Nc3ccc(C#Cc4cccs4)cc3NC(=O)C2)c1` [Example 50, 3-(4-Oxo-7-thiophen-2-ylethynyl-4,5-dihydro-3H-benzo [b][1,4]diazepin-2-yl)-benzonitrile], the melting point is 235 to 238 °C (dec.).

Molecule `N#Cc1cccc(C2=Nc3ccc(-c4cccc(F)c4F)cc3NC(=O)C2)c1` [Example 51, 3-[7-(2,3-Difluoro-phenyl)-4-oxo-4,5-dihydro-3H-benzo [b][1,4]diazepin-2-yl]-benzonitrile] displayed a melting point of 240 °C.

Molecule `N#Cc1cccc(C2=Nc3ccc(-c4ccc(-c5ccccc5)cc4)cc3NC(=O)C2)c1` [Example 54, 3-(7-Biphenyl-4-yl-4-oxo-4,5-dihydro-3H-benzo [b][1,4]diazepin-2-yl)-benzonitrile] yielded a melting point of 251 to 253 °C.

`N#Cc1cccc(C2=Nc3ccc(C#Cc4ccc(OC(F)(F)F)cc4)cc3NC(=O)C2)c1` [Example 55, 3-[4-Oxo-7-(4-trifluoromethoxy-phenylethynyl)-4,5-dihydro-3H-benzo [b][1,4]diazepin-2-yl]-benzonitrile]: the melting point is 239 to 241 °C.

Regarding `O=C1CC(c2cccc([N+](=O)[O-])c2)=Nc2ccc(C#Cc3ccccc3)cc2N1` [Example 56, 4-(3-Nitro-phenyl)-8-phenylethynyl-1,3-dihydro-benzo [b][1,4]diazepin-2-one], the melting point lay within 228 to 229 °C.

On to `COc1ccc(-c2ccc3c(c2)NC(=O)CC(c2cccc(-n4ccnc4)c2)=N3)cc1` [Example 61, 4-(3-Imidazol-1-yl-phenyl)-8-(4-methoxy-phenyl)-1,3-dihydro-benzo [b][1,4]diazepin-2-one], for which the melting point fell in the range of 207 to 208 °C.

The molecule `O=C1CC(c2cccc(-n3ccnc3)c2)=Nc2ccc(C#Cc3ccccc3F)cc2N1` [Example 63, 8-(2-Fluoro-phenylethynyl)-4-(3-imidazol-1-yl-phenyl)-1,3-dihydro-benzo [b][1,4]diazepin-2-one] had a melting point of 201 to 203 °C.

In turn, `O=C1CC(c2cccc(-n3cncn3)c2)=Nc2ccc(-c3ccc(F)cc3)cc2N1` [Example 64, 8-(4-Fluoro-phenyl)-4-(3-[1,2,4]triazol-1-yl-phenyl)-1,3-dihydro-benzo [b][1,4]diazepin-2-one] displayed a melting point of 241 to 245 °C.

Turning to `N#Cc1ccc(-c2ccc3c(c2)NC(=O)CC(c2cccc(C#N)c2)=N3)cc1` [Example 65, 3-[7-(4-Cyano-phenyl)-4-oxo-4,5-dihydro-3H-benzo [b][1,4]diazepin-2-yl]-benzonitrile], the melting point was 240 °C (dec.).

In the case of `N#Cc1ccc(-c2ccc3c(c2)NC(=O)CC(c2cccc(-n4ccnc4)c2)=N3)cc1` [Example 66, 4-[2-(3-Imidazol-1-yl-phenyl)-4-oxo-4,5-dihydro-3H-benzo [b][1,4]diazepin-7-yl]-benzonitrile], the melting point is 209 to 213 °C (dec.).

Turning to `O=C1CC(c2cccc([N+](=O)[O-])c2)=Nc2ccc(-c3ccc(F)cc3)cc2N1` [Example 67, 8-(4-Fluoro-phenyl)-4-(3-nitro-phenyl)-1,3-dihydro-benzo [b][1,4]diazepin-2-one], the melting point is 220 to 226 °C (dec.).

Turning to `O=C1CC(c2ccnc(-n3ccnc3)c2)=Nc2ccc(-c3ccc(F)cc3)cc2N1` [Example 69, 8-(4-Fluoro-phenyl)-4-(2-imidazol-1-yl-pyridin-4-yl)-1,3-dihydro-benzo [b][1,4]diazepin-2-one], the melting point was 213 °C (dec.).

For the molecule `Nc1cccc(C2=Nc3ccc(-c4ccc(F)cc4)cc3NC(=O)C2)c1` [Example 70, 4-(3-Amino-phenyl)-8-(4-fluoro-phenyl)-1,3-dihydro-benzo [b][1,4]diazepin-2-one], the melting point is 210 to 217 °C (dec.).

`CS(=O)(=O)Nc1cccc(C2=Nc3ccc(-c4ccc(F)cc4)cc3NC(=O)C2)c1` [Example 73, N-{3-[7-(4-Fluoro-phenyl)-4-oxo-4,5-dihydro-3H-benzo [b][1,4]diazepin-2-yl]-phenyl}-methanesulfonamide] came in with a melting point of 232 to 235 °C.

`O=C1CC(c2cccc(-n3ccnc3)c2)=Nc2ccc(-c3ccc(OCc4ccccc4)nc3)cc2N1` [Example 74, 8-(6-Benzyloxy-pyridin-3-yl)-4-(3-imidazol-1-yl-phenyl)-1,3-dihydro-benzo [b][1,4]-diazepin-2-one]: the melting point lay in the range of 225 to 231 °C.

As to `Cc1cn(-c2cccc(C3=Nc4ccc(C#Cc5ccc(F)cc5)cc4NC(=O)C3)c2)cn1` [Example 78, 8-(4-Fluoro-phenylethynyl)-4-[3-(4-methyl-imidazol-1-yl)-phenyl]-1,3-dihydro-benzo [b][1,4]diazepin-2-one], the melting point is 210 °C.

In the case of `Cc1nccn1-c1cccc(C2=Nc3ccc(-c4ccccc4F)cc3NC(=O)C2)c1` [Example 81, 8-(2-Fluoro-phenyl)-4-[3-(2-methyl-imidazol-1-yl)-phenyl]-1,3-dihydro-benzo[b][1,4]diazepin-2-one], the melting point turned out to be 187 °C.

For the molecule `Cc1nccn1-c1cccc(C2=Nc3ccc(-c4ccc(F)cc4)cc3NC(=O)C2)c1` [Example 82, 8-(4-Fluoro-phenyl)-4-[3-(2-methyl-imidazol-1-yl)-phenyl]-1,3-dihydro-benzo[b][1,4]diazepin-2-one], the melting point worked out at 227 °C.

Regarding `N#Cc1ccsc1C1=CC(=O)Nc2cc(-c3ccccc3F)ccc2N1` [Example 84, 2-[7-(2-Fluoro-phenyl)-4-oxo-4,5-dihydro-1H-benzo [b][1,4]diazepin-2-yl]-thiophene-3-carbonitrile], the melting point lay in the range of 238 to 240 °C.

Turning to `O=C1CC(c2cccc(-n3cnnn3)c2)=Nc2ccc(-c3ccccc3F)cc2N1` [Example 88, 8-(2-Fluoro-phenyl)-4-(3-tetrazol-1-yl-phenyl)-1,3-dihydro-benzo [b][1,4]diazepin-2-one], the melting point lay in the range of 179 to 180 °C.

For `Cc1cn(-c2cccc(C3=Nc4ccc(-c5ccc(F)cc5)cc4NC(=O)C3)c2)c(C)n1` [Example 89, 4-[3-(2,4-Dimethyl-imidazol-1-yl)-phenyl]-8-(4-fluoro-phenyl)-1,3-dihydro-benzo[b][1,4]diazepin-2-one], the melting point is 188 °C.

Take `Cc1cn(-c2cccc(C3=Nc4ccc(C#Cc5ccccc5)cc4NC(=O)C3)c2)c(C)n1` [Example 90, 4-[3-(2,4-Dimethyl-imidazol-1-yl)-phenyl]-8-phenylethynyl-1,3-dihydro-benzo[b][1,4]diazepin-2-one]: the melting point is 134 °C (dec.).

Turning to `O=C1CC(c2sccc2Cl)=Nc2ccc(-c3ccc(F)cc3)cc2N1` [Example 91, 4-(3-Chloro-thiophen-2-yl)-8-(4-fluoro-phenyl)-1,3-dihydro-benzo [b][1,4]diazepin-2-one], the melting point lay in the range of 255 to 256 °C.

`N#Cc1cccc(C2=Nc3ccc(-c4cccc(F)c4)cc3NC(=O)C2)c1` [Example 96, 3-[7-(3-Fluoro-phenyl)-4-oxo-4,5-dihydro-3H-benzo [b][1,4]diazepin-2-yl]-benzonitrile] came in with a melting point of 232 to 235 °C.

`O=C1CC(c2cccc(-n3cnnc3)c2)=Nc2ccc(-c3ccccc3F)cc2N1` [Example 99, 8-(2-Fluoro-phenyl)-4-(3-[1,2,4]triazol-4-yl-phenyl)-1,3-dihydro-benzo [b][1,4]diazepin-2-one]: the melting point amounted to 198 °C.

`N#Cc1ccc(C2=Nc3ccc(-c4ccccc4F)cc3NC(=O)C2)s1` [Example 100, 5-[7-(2-Fluoro-phenyl)-4-oxo-4,5-dihydro-3H-benzo [b][1,4]diazepin-2-yl]-thiophene-2-carbonitrile] gave a melting point of over 250 °C.

As for `Cc1cn(-c2cccc(C3=Nc4ccc(-c5ccccc5F)cc4NC(=O)C3)c2)c(C)n1` [Example 101, 4-[3-(2,4-Dimethyl-imidazol-1-yl)-phenyl]-8-(2-fluoro-phenyl)-1,3-dihydro-benzo[b][1,4]diazepin-2-one], the melting point worked out at 92 °C.

Regarding `COCSc1nccn1-c1cccc(C2=Nc3ccc(-c4ccccc4F)cc3NC(=O)C2)c1` [Example 102, 8-(2-Fluoro-phenyl)-4-[3-(2-methoxymethylsulfanyl-imidazol-1-yl)-phenyl]-1,3-dihydro-benzo[b][1,4]diazepin-2-one], the melting point fell in the range of 189 to 190 °C.

`N#Cc1ccc(F)c(C2=Nc3ccc(-c4ccccc4F)cc3NC(=O)C2)c1` [Example 103, 4-Fluoro-3-[7-(2-fluoro-phenyl)-4-oxo-4,5-dihydro-3H-benzo [b][1,4]diazepin-2-yl]-benzonitrile] returned a melting point of 239 °C.

`CC(C)c1ccc2c(c1)NC(=O)CC(c1ccnc(C#N)c1)=N2` [Example 105, 4-(7-Isopropyl-4-oxo-4,5-dihydro-3H-benzo [b][1,4]diazepin-2-yl)-pyridine-2-carbonitrile] had a melting point of 173 to 178 °C.

`Cc1cn(-c2nc(C3=Nc4ccc(-c5ccccc5F)cc4NC(=O)C3)cs2)cn1` [Example 106, 8-(2-Fluoro-phenyl)-4-[2-(4-methyl-imidazol-1-yl)-thiazol-4-yl]-1,3-dihydro-benzo[b][1,4]diazepin-2-one]: the melting point is 229 °C.

Consider `Cc1cn(-c2nc(C3=Nc4ccc(-c5ccc(F)cc5)cc4NC(=O)C3)cs2)cn1` [Example 107, 8-(4-Fluoro-phenyl)-4-[2-(4-methyl-imidazol-1-yl)-thiazol-4-yl]-1,3-dihydro-benzo[b][1,4]diazepin-2-one], for which the melting point was determined as 229 °C.

`N#Cc1cccc(C2=Nc3ccc(CCc4ccccc4)cc3NC(=O)C2)c1` [Example 108, 3-(4-Oxo-7-phenethyl-4,5-dihydro-3H-benzo[b][1,4]diazepin-2-yl)-benzonitrile]: the melting point fell in the range of 212 to 214 °C.
